From patent publication US6852863B2, “Metabolites of (3-{[4-tert-butyl-benzyl)-(pyridine-3-sulfonyl)-amino]-methyl}-phenoxy)-acetic acid” (Pfizer Inc., priority 2002, dated 2005)

Key:
[1] = Radiolabelled mass balance and metabolic profiles of 14C-parent in Sprague Dawley rats; assay type: in vivo; conditions: single 15 mg/kg I.V. dose of 14C-parent
Method: To determine the radiolabelled mass balance and metabolic profiles of (3-{[4-tert-butyl-benzyl)-(pyridine-3-sulfonyl)-amino]-methyl}-phenoxy)-acetic acid in urine, feces, bile and plasma of Sprague-Dawley rats after I.V. administration of a single 15 mg/kg dose of ^14C-(3-{[4-tert-butyl-benzyl)-(pyridine-3-sulfonyl)-amino]-methyl}-phenoxy)-acetic acid.
A group of three male and three female jugular-vein cannulated Sprague-Dawley rats (230-240 g) was housed individually in stainless steel metabolic cages designed to collect urine and feces and administered intravenously a single, 15 mg/kg, dose of ^14C-(3-{[4-tert-butyl-benzyl)-(pyridine-3-sulfonyl)-amino]-methyl}-phenoxy)-acetic acid. […]
The radioactivity in urine, bile and plasma was determined by liquid scintillation counting. Aliquots of urine (0.1 g), bile (0.025 g) or plasma (0.025 g) were mixed with 5 ml of Ecolite (+) scintillation cocktail and counted in a Wallac #1409 liquid scintillation counter (Gaithersburg, Md.). Fecal samples at each time point were homogenized with water, and the total weights of the fecal homogenate were recorded. […]
The radioactivity in the dose was established as 100% of the total radioactivity. The radioactivity at each sampling time for urine and feces was defined as the percentage of dose excreted in the respective matrices. […]

[2] = Metabolism of 14C-parent in monkey liver microsomes; assay type: in vitro ADME; conditions: 20 μM 14C-parent, NADPH, 30 minutes, 37° C.; HPLC radiochromatogram peak
Method: Human (HL-mix 12), rat, monkey and dog liver microsomes were prepared by differential centrifugation using standard procedures. Prior to use, liver microsomes were thawed on ice and reconstituted using 100 mM potassium phosphate pH 7.4. [^14C]-(3-{[4-tert-butyl-benzyl)-(pyridine-3-sulfonyl)-amino]-methyl}-phenoxy)-acetic acid was dissolved 100 mM potassium phosphate pH 7.4 at a final substrate concentration of 20 μM. Samples were pre-incubated for 3 min with microsomes (CYP 450; 0.5 μM) at 37° C. in a shaking water bath. Incubations were initiated with the addition of 100 μl cofactor (1.1 mM NADPH, 10 mM MgCl2) per 1 ml of incubation mixture. Incubations were stopped after 30 minutes by the addition of an equal volume of cold acetonitrile.
Metabolite quantification was performed by measuring the areas of individually separated HPLC peaks using the β-RAM (IN/US, Win-flow). […]
Identification of the metabolites was performed using a Finnigan TSQ 7000 triple quadrupole mass spectrometer equipped with an API-2 electrospray interface. […] The β-RAM response was recorded as a real time analog signal by the MS data collection system. The collected data from the radioactivity and MS detectors were separated by the dwell volume of flow from the MS to the radioactivity detector (corresponding to a dwell time of about 0.2 min.). […]

- Percentage of metabolite formed in vivo, females (basis of % not stated) ([1]; female rats): 6.5%
- Percentage of metabolite formed in vivo, males (basis of % not stated) ([1]; male rats): 19.7%
- Percent of Radioactivity, Monkey liver microsomes [2]: 47.3%
Structure (SMILES): CC(C)(CO)c1ccc(CN(Cc2cccc(OCC(=O)O)c2)S(=O)(=O)c2cccnc2)cc1 [Metabolite M4, (3-{[[4-(2-hydroxy-1,1-dimethyl-ethyl)-benzyl]-(pyridine-3-sulfonyl)-amino]-methyl}-phenoxy)-acetic acid]
